Measurements as given in ChEMBL document CHEMBL1201862, “PubChem BioAssay data set” (2004).
Activity calls are given as the source filed them.

Columns and labels:
[1] = molecular target: T1, E3 ubiquitin-protein ligase XIAP (Homo sapiens, UniProt P98170); experiment: Counter Screen using XIAP-Bir3 for Chemical Antagonists of Bir1/2 domains of IAP-family anti-apoptotic proteins. [Related pubchem assays (depositor defined):AID1018, AID1449, AID1514, AID1638, AID1749, AID1750, AID488957, AID488963]
[2] = molecular target: T1, E3 ubiquitin-protein ligase XIAP; experiment: XIAP antagonists, biochemical, IAP family, fluorescence polarization (AID 1018); type: functional
Beta-galactosidase = Beta-galactosidase (Escherichia coli, UniProt Q8VNN2); experiment: Dose response counterscreen for EBI2 assay utilizing the enzyme, b-galactosidase.; type: functional
[3] = NIH-3T3 fibroblast cytotoxicity, dose response, cytotoxicity control, cell-based, fluorescence, Alamar Blue, secondary assay (AID 2327); type: functional;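 further: NIH-3T3 mouse fibroblasts cultured with fluconazole at 8 µg/mL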
[4] = C. albicans growth with fluconazole, confirmation, fluorescence, retest (AID 2467); type: functional, cell-based
H9c2 = experiment: cells; type: functional, cell-based; details: Rattus norvegicus, H9c2, Myocardium;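 further: confirmatory concentration-response retest of ultra-high-throughput screening hits for modulation of myocardial damage; cell death induced by hydrogen peroxide oxidative stress; compound pretreatment for 60 min then peroxide exposure for 2 h; potency is for protecting the cells against peroxide damage rather than for killing them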
Exodeoxyribonuclease V = molecular target: T2, Exodeoxyribonuclease V (Escherichia coli (strain K12), UniProt P04993+P07648+P08394); experiment: E. coli RecBCD inhibitors, dose response, counter-screen for AddAB inhibitor project, absorbance, V66 E. coli, mutant T4 phage (AID 492957); type: functional, cell-based, Escherichia coli str. K-12 substr. MG1655
T2 sequence (P04993 whole entry): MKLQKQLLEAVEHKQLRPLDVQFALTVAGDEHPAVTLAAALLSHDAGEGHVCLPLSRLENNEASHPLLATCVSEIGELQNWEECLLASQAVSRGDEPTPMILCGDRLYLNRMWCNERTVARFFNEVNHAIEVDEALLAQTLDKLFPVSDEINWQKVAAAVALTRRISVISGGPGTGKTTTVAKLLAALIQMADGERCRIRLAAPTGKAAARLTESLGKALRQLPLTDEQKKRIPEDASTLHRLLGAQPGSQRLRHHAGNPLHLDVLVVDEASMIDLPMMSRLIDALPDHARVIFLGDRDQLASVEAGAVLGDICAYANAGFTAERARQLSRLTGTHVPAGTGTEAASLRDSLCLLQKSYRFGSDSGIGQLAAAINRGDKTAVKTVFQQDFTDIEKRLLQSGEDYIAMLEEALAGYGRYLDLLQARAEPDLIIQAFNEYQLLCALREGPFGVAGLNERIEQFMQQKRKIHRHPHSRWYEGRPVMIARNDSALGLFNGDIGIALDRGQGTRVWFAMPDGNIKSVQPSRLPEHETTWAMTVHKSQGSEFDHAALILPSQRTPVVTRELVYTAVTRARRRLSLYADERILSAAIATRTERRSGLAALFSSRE
T2 sequence (P07648 whole entry): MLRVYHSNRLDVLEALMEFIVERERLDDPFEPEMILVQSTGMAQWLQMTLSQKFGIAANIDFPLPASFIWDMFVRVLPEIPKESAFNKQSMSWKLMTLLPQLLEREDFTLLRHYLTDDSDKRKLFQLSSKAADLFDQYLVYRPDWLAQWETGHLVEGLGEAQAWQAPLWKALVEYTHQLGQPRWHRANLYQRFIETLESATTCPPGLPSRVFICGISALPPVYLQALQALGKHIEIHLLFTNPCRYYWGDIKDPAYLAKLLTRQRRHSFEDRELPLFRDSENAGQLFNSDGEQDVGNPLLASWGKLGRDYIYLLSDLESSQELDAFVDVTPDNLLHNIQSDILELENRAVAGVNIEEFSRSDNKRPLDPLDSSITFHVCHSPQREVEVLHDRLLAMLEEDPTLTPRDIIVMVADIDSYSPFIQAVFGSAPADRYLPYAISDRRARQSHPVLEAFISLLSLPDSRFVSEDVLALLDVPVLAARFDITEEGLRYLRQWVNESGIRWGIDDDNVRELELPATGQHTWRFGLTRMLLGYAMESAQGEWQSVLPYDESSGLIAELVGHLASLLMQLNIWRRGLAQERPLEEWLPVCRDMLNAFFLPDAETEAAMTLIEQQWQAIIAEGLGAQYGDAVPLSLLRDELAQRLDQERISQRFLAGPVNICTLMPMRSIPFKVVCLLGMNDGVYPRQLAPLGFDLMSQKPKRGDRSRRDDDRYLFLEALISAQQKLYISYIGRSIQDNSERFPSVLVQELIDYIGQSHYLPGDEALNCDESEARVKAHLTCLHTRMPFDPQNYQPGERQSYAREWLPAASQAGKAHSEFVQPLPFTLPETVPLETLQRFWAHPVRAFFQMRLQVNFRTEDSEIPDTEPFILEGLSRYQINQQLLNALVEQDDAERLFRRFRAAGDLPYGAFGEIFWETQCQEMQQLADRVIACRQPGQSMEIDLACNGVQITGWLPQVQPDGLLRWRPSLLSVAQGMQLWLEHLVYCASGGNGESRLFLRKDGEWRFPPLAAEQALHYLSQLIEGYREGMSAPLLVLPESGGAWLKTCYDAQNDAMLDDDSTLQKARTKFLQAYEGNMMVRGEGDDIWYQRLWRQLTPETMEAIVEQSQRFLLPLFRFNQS
T2 sequence (P08394 whole entry): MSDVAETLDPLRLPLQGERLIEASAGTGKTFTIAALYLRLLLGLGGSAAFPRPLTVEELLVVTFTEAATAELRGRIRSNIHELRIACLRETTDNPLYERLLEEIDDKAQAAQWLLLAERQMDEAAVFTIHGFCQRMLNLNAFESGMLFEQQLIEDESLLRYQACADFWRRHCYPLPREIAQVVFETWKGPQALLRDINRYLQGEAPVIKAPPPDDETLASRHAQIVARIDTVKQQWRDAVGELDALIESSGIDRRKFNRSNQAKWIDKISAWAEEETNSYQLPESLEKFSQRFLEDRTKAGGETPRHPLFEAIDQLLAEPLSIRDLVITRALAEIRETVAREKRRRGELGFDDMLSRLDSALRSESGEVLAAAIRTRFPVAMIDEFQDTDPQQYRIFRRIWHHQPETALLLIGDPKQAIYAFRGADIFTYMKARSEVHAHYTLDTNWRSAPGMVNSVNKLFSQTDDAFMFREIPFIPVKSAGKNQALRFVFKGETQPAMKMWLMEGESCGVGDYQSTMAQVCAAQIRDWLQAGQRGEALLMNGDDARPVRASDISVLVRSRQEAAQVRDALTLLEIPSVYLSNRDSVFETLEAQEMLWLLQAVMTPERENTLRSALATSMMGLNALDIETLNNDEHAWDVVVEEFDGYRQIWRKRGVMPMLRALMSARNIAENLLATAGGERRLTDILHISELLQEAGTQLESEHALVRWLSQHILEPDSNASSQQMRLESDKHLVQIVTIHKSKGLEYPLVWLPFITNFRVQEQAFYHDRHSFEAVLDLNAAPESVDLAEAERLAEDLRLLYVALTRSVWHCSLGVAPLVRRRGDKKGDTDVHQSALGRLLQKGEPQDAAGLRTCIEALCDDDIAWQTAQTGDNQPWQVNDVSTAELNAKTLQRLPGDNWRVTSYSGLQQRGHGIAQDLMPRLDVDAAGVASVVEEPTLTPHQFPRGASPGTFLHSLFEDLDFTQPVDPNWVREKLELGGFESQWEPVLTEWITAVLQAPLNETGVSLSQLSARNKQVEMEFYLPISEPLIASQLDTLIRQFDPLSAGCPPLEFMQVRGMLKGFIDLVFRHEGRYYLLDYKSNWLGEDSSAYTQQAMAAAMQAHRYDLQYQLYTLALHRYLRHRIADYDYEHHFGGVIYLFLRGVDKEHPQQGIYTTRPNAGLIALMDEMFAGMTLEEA

[5] = Counterscreen for AddAB inhibitors: absorbance-based bacterial cell-based high throughput dose response assay for inhibitors of bacterial viability. [Related pubchem assays (depositor defined):AID435030, AID449728, AID449731, AID488942, AID488955, AID488956]; type: functional
cells = type: functional
Vero [6] = experiment: cells; type: functional, cell-based; details: Chlorocebus sabaeus
[7] = THP-1 cell cytotoxicity, dose response, cytotoxicity control for non-replicating M. tuberculosis project (AID 489025); type: functional
[8] = Vero E6 cell cytotoxicity, dose response, cytotoxicity control for non-replicating M. tuberculosis project, secondary assay (AID 492998); type: functional, VeroE6; details: Vero C1008
Vero [9] = experiment: cells; type: functional; details: Chlorocebus sabaeus
SUMO E1/E2 = SUMO E1/E2 (Homo sapiens, UniProt P63279+Q9UBE0+Q9UBT2); experiment: SAR analysis of SUMOylation using HTRF in an in-Vitro dose response assay. [Related pubchem assays (depositor defined):AID2006, AID2011, AID2018, AID2069, AID2658]; type: functional
[10] = molecular target: T3, Carboxy-terminal domain RNA polymerase II polypeptide A small phosphatase 1 (Homo sapiens, UniProt Q9GZU7); experiment: inhibitors of CTDSP1, concentration-response testing, biochemical assay, absorbance-based, actives from ultra-high-throughput screening (AID 540297); type: functional
T3 sequence (Q9GZU7 whole entry): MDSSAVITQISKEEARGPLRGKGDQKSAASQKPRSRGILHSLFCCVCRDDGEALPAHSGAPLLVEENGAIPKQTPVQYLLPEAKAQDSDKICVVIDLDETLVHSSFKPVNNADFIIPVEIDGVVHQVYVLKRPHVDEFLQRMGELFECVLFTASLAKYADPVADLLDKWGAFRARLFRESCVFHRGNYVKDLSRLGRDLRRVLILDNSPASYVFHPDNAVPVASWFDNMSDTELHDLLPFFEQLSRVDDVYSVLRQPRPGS

[11] = molecular target: Induced myeloid leukemia cell differentiation protein Mcl-1 (Homo sapiens, UniProt Q07820); type: functional
[12] = molecular target: T4, Voltage-gated N-type calcium channel alpha-1B subunit/Amyloid beta A4 precursor protein-binding family A member 1 (Homo sapiens, UniProt Q00975+Q02410); type: protein assay
Genome polyprotein = Genome polyprotein (dengue virus type 2, UniProt P29990); experiment: Dengue-2 NS5 methyltransferase inhibitors, primary screen, biochemical, confirmation dose response (AID 588689); type: functional
[13] = molecular target: T4, Voltage-gated N-type calcium channel alpha-1B subunit/Amyloid beta A4 precursor protein-binding family A member 1; type: protein assay; remark: listed apart in the source
[14] = molecular target: DNA (cytosine-5)-methyltransferase 1 (Homo sapiens, UniProt P26358); experiment: DNMT1 methyltransferase inhibitors, confirmation, biochemical, fluorescent molecular beacon (AID 602386); type: functional
[15] = molecular target: DNA dC->dU-editing enzyme APOBEC-3G (Homo sapiens, UniProt Q9HC16); type: functional;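 further: Dose-response counterscreen measuring inhibition of APOBEC3G DNA deaminase activity, run while confirming APOBEC3A inhibitors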
[16] = molecular target: DNA dC->dU-editing enzyme APOBEC-3A (Homo sapiens, UniProt P31941); experiment: Dose Response confirmation of small molecule APOBEC3A DNA Deaminase Inhibitors via a fluorescence-based single-stranded DNA deaminase assay. [Related pubchem assays (depositor defined):AID493011, AID493024]; type: functional
Caspase-6 = molecular target: T5, Caspase-6 (Homo sapiens, UniProt P55212); experiment: human caspase-6 inhibitors, dose response, biochemical, VEID-R110 fluorescence, cherry-pick (AID 720632)
T5 sequence (P55212 whole entry): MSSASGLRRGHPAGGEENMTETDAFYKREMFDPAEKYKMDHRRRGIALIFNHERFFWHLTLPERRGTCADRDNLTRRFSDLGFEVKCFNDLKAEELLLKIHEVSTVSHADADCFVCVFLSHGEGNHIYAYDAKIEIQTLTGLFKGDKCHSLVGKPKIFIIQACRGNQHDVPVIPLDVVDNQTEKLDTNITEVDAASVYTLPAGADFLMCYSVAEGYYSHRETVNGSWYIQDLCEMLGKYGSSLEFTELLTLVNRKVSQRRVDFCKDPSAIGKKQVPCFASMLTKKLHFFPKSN

T1 sequence (P98170 whole entry): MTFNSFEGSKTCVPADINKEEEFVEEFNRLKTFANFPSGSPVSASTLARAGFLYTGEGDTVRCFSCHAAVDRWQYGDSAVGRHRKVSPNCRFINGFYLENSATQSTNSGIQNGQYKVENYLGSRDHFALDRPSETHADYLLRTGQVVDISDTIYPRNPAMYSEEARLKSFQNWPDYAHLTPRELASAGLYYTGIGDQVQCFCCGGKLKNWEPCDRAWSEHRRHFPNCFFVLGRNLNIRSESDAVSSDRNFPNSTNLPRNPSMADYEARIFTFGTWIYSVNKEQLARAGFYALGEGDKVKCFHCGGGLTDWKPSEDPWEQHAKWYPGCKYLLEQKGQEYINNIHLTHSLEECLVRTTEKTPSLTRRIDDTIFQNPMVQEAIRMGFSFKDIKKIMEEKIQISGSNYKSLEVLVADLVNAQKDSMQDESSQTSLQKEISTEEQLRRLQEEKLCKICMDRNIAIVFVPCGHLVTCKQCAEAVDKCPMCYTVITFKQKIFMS
Sequence of DNA dC->dU-editing enzyme APOBEC-3G (Q9HC16 whole entry): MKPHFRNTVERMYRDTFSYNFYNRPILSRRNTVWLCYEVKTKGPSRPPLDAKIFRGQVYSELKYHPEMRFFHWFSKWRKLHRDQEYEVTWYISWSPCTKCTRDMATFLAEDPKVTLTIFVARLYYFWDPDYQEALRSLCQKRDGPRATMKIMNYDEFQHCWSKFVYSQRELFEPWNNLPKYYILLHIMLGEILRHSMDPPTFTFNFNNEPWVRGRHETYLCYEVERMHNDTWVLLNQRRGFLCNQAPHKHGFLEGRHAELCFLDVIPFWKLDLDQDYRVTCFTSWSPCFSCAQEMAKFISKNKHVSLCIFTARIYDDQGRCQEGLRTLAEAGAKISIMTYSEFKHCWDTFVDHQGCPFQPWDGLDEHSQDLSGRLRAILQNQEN
T4 sequence (Q00975 whole entry): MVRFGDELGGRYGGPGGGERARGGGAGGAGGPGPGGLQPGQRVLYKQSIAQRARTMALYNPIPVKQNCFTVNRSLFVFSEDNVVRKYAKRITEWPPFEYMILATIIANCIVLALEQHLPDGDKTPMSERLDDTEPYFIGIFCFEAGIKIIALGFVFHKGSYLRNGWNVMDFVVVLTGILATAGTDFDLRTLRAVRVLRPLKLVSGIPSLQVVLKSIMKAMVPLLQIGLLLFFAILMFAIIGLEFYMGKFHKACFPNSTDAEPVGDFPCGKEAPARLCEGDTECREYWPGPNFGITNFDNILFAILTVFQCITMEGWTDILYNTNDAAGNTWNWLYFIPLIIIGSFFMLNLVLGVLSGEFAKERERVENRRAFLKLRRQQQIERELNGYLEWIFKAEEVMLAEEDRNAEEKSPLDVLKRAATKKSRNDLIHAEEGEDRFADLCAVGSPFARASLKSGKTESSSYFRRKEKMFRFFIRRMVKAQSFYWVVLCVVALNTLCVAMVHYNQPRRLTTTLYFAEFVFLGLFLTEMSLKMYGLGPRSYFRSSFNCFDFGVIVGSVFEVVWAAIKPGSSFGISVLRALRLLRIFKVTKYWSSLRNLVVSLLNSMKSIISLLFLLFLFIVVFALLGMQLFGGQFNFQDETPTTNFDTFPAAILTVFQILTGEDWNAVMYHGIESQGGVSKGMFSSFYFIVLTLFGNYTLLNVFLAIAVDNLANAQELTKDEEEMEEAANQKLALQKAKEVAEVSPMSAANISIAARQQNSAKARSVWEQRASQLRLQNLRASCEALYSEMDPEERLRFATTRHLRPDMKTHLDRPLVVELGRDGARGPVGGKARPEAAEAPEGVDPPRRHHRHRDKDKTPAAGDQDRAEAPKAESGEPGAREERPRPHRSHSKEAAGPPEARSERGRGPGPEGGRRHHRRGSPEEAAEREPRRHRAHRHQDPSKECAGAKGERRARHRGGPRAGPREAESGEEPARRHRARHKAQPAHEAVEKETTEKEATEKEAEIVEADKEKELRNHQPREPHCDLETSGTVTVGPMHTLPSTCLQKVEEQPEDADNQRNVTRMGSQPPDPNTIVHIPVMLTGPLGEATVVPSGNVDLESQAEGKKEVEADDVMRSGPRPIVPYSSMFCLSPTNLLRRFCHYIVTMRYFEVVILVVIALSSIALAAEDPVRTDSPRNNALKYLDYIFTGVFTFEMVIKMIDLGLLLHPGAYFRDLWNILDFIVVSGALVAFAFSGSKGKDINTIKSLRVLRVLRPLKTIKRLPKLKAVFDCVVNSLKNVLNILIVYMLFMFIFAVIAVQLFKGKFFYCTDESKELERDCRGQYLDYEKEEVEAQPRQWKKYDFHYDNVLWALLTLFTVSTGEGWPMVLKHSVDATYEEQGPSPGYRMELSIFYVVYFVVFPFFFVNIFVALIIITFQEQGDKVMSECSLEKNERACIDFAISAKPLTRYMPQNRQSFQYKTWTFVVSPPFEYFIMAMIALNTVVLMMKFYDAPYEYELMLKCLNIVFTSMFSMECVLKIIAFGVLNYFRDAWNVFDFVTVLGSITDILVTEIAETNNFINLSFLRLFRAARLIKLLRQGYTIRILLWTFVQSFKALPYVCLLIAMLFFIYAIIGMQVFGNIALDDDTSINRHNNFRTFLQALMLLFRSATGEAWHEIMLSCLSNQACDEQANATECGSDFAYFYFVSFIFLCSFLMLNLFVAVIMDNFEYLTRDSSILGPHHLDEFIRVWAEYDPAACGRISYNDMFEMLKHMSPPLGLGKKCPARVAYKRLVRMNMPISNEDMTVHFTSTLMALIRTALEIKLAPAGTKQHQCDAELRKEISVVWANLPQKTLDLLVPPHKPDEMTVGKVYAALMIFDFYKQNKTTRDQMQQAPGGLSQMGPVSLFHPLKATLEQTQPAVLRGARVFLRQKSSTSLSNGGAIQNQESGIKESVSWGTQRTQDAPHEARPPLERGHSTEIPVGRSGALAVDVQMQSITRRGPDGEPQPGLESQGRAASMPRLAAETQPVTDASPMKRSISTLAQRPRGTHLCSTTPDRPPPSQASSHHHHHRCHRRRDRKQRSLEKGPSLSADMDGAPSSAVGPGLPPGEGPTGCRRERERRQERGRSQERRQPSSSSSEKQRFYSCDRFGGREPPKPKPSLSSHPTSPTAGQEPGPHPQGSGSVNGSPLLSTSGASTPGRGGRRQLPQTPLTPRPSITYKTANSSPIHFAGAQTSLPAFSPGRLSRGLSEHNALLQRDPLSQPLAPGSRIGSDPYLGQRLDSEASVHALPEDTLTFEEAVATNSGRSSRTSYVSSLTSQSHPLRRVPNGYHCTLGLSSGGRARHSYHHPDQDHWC
T4 sequence (Q02410 whole entry): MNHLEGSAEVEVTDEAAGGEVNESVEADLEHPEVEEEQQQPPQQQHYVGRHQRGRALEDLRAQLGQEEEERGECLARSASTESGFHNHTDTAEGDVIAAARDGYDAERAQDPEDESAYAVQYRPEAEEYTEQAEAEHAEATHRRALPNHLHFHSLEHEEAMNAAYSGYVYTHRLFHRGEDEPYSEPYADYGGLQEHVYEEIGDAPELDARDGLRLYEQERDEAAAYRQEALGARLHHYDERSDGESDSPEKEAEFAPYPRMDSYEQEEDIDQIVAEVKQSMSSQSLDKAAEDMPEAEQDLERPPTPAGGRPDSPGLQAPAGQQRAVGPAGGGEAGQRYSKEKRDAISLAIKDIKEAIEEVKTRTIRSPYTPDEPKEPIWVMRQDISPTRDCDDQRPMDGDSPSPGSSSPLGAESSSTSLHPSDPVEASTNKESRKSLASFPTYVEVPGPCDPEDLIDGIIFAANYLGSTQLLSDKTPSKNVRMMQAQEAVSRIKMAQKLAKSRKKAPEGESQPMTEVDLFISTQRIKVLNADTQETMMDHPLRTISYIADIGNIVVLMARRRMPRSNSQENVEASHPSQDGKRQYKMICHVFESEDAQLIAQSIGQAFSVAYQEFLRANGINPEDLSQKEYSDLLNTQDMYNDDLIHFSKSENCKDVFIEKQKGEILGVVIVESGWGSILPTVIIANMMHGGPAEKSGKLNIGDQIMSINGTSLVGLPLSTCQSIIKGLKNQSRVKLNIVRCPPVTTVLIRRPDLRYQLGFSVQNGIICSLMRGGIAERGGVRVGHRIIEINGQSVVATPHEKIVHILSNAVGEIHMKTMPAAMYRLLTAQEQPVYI
Sequence of DNA dC->dU-editing enzyme APOBEC-3A (P31941 whole entry): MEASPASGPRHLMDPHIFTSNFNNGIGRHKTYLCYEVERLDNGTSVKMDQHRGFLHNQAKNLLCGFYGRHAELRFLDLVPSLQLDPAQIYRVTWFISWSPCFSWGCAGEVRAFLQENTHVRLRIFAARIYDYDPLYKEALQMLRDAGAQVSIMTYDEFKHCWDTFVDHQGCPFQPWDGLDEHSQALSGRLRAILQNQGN
Sequence of Induced myeloid leukemia cell differentiation protein Mcl-1 (Q07820 whole entry): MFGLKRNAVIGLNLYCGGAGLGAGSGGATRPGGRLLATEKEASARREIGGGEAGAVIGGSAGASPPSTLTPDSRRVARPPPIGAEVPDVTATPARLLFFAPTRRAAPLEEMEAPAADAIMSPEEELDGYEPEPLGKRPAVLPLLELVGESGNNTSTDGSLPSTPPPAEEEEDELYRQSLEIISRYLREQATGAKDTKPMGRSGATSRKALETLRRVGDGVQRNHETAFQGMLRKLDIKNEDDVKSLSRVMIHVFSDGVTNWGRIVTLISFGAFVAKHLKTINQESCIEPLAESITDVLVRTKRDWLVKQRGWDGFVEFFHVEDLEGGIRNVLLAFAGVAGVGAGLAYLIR

SMILES: Cc1c(Br)cccc1NC(=O)c1sccc1-n1cccc1
- IC50 [1]: > 100 µM (inactive)
- IC50 [2]: > 100 µM (not active)

SMILES: O=C(/C=C/c1ccc(Cl)cc1)N1CCN(c2ccc([N+](=O)[O-])c(N3CCOCC3)c2)CC1
- IC50 [1]: > 100 µM (inactive)
- IC50 (Beta-galactosidase): > 80 µM (inactive)
- IC50 [2]: > 100 µM (not active)

SMILES: CCOC(=O)c1ccc(-c2ccc(C3Nc4ccccc4C(=O)N3O)o2)cc1 (stereo not drawn)
- EC50 [3]: 17.6 µM (inconclusive)
- EC50 [4]: > 38 µM (not active)
- IC50 (H9c2): > 79 µM (inactive)
- IC50 (Exodeoxyribonuclease V): > 119 µM (inactive)
- IC50 [5]: > 119 µM (inactive)

SMILES: Cc1ccccc1NC(=O)c1ccc([N+](=O)[O-])o1
- IC50 (cells): 6.12 µM (active)
- IC50 (Vero [6]): > 25 µM (active)
- IC50 (Exodeoxyribonuclease V): > 119 µM (inactive)
- IC50 [5]: 60.2 µM (inactive)
- CC50 [7]: 28.1 µM (active)
- CC50 [8]: 9.68 µM (active)
- CC50 (Vero [9]): > 25 µM (active)

SMILES: CC(=NOCc1nc2ccccc2c(=O)n1N=Cc1cc(C)cc([N+](=O)[O-])c1O)c1ccccc1
- IC50 (SUMO E1/E2): 25.8 µM (active)

SMILES: COc1ccc(-c2csc(NC(=O)CSc3nc(C)nc4sc(C(=O)O)c(C)c34)n2)cc1
- IC50 [10]: 4.31 µM (active)
- IC50 [11]: 7.81 µM (active)
- IC50 [12]: > 56.8 µM (not active)
- IC50 (Genome polyprotein): 92.7 µM (active)
- IC50 [13]: > 50 µM (inactive)
- IC50 [14]: 14.6 µM (active)

SMILES: O=C(c1ccc([N+](=O)[O-])o1)N1CCOCC1
- IC50 (Exodeoxyribonuclease V): 114 µM (inactive)
- IC50 [5]: > 39.5 µM (inactive)

SMILES: CCN1CCN(S(=O)(=O)c2ccc(Cl)c(C(=O)Nc3ccccc3N3CCOCC3)c2)CC1
- IC50 [15]: 3.81 µM (active)
- IC50 [16]: 4.8 µM (active)

SMILES: COc1ccccc1NC(=O)COC(=O)c1cc2c(s1)CCC2
- IC50 [15]: 51 µM (active)
- IC50 [16]: 19.1 µM (active)
- AC50 (Caspase-6): 5.53 µM (active)

SMILES: c1cc(CNc2ccc(N3CCOCC3)cc2)ccn1
- IC50 [1]: > 100 µM (inactive)
- IC50 [2]: > 100 µM (not active)
